Reference: EP1339725B1, “DNA METHYL TRANSFERASE INHIBITORS” (priority 2000, dated 2002)

Experiments:
[1] = target: Brucella abortus CcrM (Brucella abortus, UniProt Q2YMK2); format: biochemical
[2] = tested on: Caulobacter crescentus (CB15N); experiment: Caulobacter crescentus cell growth assay; format: cell-based; conditions: PYE media with 200 µg/mL ampicillin, 30°C, growth monitored at 630 nm up to 22 hours
[3] = tested on: Bacillus subtilis (ATCC #33234); experiment: Bacillus subtilis cell growth assay; format: cell-based; conditions: LB media without antibiotics, 37°C, growth monitored up to 7.5 hours

Sequence of Brucella abortus CcrM (Q2YMK2 whole entry, looked up): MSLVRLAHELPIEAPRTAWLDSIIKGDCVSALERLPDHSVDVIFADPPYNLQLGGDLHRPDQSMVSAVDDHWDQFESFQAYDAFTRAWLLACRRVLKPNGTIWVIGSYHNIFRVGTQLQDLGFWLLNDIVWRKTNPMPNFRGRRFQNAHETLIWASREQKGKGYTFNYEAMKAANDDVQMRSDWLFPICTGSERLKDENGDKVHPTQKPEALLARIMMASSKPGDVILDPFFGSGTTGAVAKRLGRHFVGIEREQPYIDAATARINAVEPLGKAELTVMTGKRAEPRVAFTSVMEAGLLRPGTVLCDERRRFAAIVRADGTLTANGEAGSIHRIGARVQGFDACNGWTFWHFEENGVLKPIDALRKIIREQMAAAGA

Molecule	% reaction Brucella abortus CcrM Activity [1]	IC50 [2]	IC50 [3]
Fc1ccc(B(Oc2cccc3cccnc23)c2ccc(F)cc2)cc1 [Compound 11ii, Di-(4-fluorophenyl)borinic acid 8-hydroxyquinoline ester]	61%	–	–
Clc1ccc(B(Oc2cccc3cccnc23)c2ccc(Cl)cc2)cc1 [Compound 11iii, Di-(4-chlorophenyl)borinic acid 8-hydroxyquinoline ester]	61%	–	–
c1cnc2c(OB(c3ccc4c(c3)OCO4)c3ccc4c(c3)OCO4)cccc2c1 [Compound 11vi, Di-(3,4-methylenedioxyphenyl)borinic acid 8-hydroxyquinoline ester]	42%	–	–
c1csc(B(Oc2cccc3cccnc23)c2cccs2)c1 [Compound 11viii, Di-(2-thienyl)borinic acid 8-hydroxyquinoline ester]	74%	–	–
Cc1ccc2cccc(OB(c3ccc(F)cc3)c3ccc(F)cc3)c2n1 [Compound 12ii, Di-(p-fluorophenyl)borinic acid 8-hydroxyquinaldine ester]	17%	–	–
Cc1ccc2cccc(OB(c3ccc(Cl)cc3)c3ccc(Cl)cc3)c2n1 [Compound 12iii, Di-(p-chlorophenyl)borinic acid 8-hydroxyquinaldine ester]	40%	–	–
COc1ccc(B(Oc2cccc3ccc(C)nc23)c2ccc(OC)cc2)cc1 [Compound 12vii, Di-(4-methoxyphenyl)borinic acid 8-hydroxyquinaldine ester]	56%	–	–
Fc1ccc(B(Oc2ccc(Cl)c3cccnc23)c2ccc(F)cc2)cc1 [Compound 13ii, Di-(p-fluorophenyl)borinic acid 5-chloro-8-hydroxyquinaline ester]	55%	–	–
Clc1ccc(B(Oc2ccc(Cl)c3cccnc23)c2ccc(Cl)cc2)cc1 [Compound 13iii, Di-(p-chlorophenyl)borinic acid 5-chloro-8-hydroxyquinaline ester]	81%	–	–
O=[N+]([O-])c1ccc(OB(c2ccc3c(c2)OCO3)c2ccc3c(c2)OCO3)c2ncccc12 [Compound 14vi, Di-(3,4-methylenedioxyphenyl)borinic acid 8-hydroxy-5-nitroquinoline ester]	21%	–	–
c1ccc(B(OCc2ccccn2)c2ccccc2)cc1 [Compound 16i, Diphenylborinic acid pyridine-2-methanol]	93%	–	–
c1ccc(B(OC[C@@H]2CCCN2)c2ccccc2)cc1 [Compound 18i, Diphenylborinic acid (S)-(+)-pyrrolidine-2-methanol]	81%	> 100 µM	> 100 µM
NCCOB(c1ccc(F)cc1)c1ccc(F)cc1 [Compound 19ii, Di-(4-fluorophenyl)borinic acid ethanolamine ester]	8%	–	–
Diphenylborinic acid 2-amino-1-phenylpropanol [Compound 17i]	114%	> 100 µM	> 100 µM
